In patent US20030176503A1, “Treating hepatitis C viral infections with thiosemicarbazone compounds” (priority 2001, published 2003):

What was measured:
[1] = system: HCV replication in Huh7_HBI10A cells containing a HCV-replicon; experiment: RHEPLISA assay, cell-based assay for measuring HCV replication (NS3 ELISA); set-up: species or system hepatitis C virus; settings: at 40 μM
Experimental: A cell-based assay for measuring the HCV replication (RHEPLISA) was developed in a 96-well microplate format. The assay utilizes Huh-7 cellular clone (Huh7_HBI10A) containing a HCV-replicon and is based on the detection of the viral NS3 protein by ELISA. About 5000 Huh7_HBI10A cells (or Huh-7 cells as negative control), resuspended in 100 μL of complete DMEM were seeded into each well of a 96 well microtiter plate (Falcon sterile by Becton Dickinson). After 4 hours, 50 μL of an appropriate dissolution medium (e.g., DMEM) containing the compounds to test or DMSO (3%) were added, and incubated (37° C., 5% CO2) for 4 days. The medium was removed by inversion and the cells were fixed by addition of 200 μ/well of ice-cold isopropanol 100%. […]
When secondary antibody AP-conjugated was used, 100 μL of AP substrate (SIGMA 104 Phosphatase substrate tablets; i.e., one tablet in 5 ml of AP buffer: diethanolamine solution 10%, pH 9.6-9.8.) were added to each well, and the plate was read in a conventional ELISA plate reader set at 405-620 nm.
When peroxidase-conjugated secondary was used, 100 μL of TMB substrate (SIGMA) were added to each well, and the plate was incubated for 20′ in the dark. 50 μL of 0.5M H2SO4 were then added, and the plate was read in a conventional ELISA plate reader set at 450-620 nm.

Huh7_HBI10A cells = experiment: Cytotoxicity assay (SRB); format: cell-based, human; settings: at 40 μM
Experimental: About 5000 Huh7_HBI10A cells, resuspended in 100 μL of complete DMEM were seeded into each well of a 96 well microtiter plate (Falcon sterile by Becton Dickinson) and incubated (37° C., 5% CO2) for 24 hours. The medium was removed and the cells were fixed by incubation with 50 μL of 50% TCA for 1 hour at 4° C., 200 μL of ice-cold isopropanol 100% for 20 minutes at 4° C., or 100 μL of 10% paraformaldehyde for 20 minutes at room temperature. The plate was washed with water when either TCA or paraformaldehyde was used to fix the cells and with PBS 1× when isopropanol was used to fix the cells. All washings were run 3 times. After drying the plate, 200 μL of SRB 1× solution (prepared fresh from a SRB solution 10×: 4% sulforhodamine B (Sigma) in 10% acetic acid) was added to each well and incubated for 30 minutes at room temperature. The SRB 1× solution was removed by inversion and the plate was washed in 1% acetic acid 3 times. To each well was added 200 μL of 10 mM Tris pH 10.5, the plate was shaken till the color of the solution in the wells was uniform, and the plate was read in a conventional ELISA plate reader set at 570 nm.

In the case of `NC(=S)NN=Cc1ccccc1` [benzaldehyde thiosemicarbazone], the “anti-HCV activity in the RHEPLISA assay” value [1] is reported as “no anti-HCV activity” and the cytotoxic inhibition (Huh7_HBI10A cells) is reported as “no cytotoxic inhibition”.
